Target: SARS‐CoV‐2 RBD/ACE2 PPI in A549 cells overexpressing ACE2 (Severe acute respiratory syndrome coronavirus 2, UniProt P0DTC2)

## Ac-IEEQAKTFLDKFNHER8EDLFYQS5-NH2 (sidechain bridge or staple) [Peptide 8]
  entry of His‐tagged SARS‐CoV RBD into cells (immunofluorescence): show entry

From publication PMC7883042 (Peptide Science (Hoboken, N.j.), 2021)
